From PMC12703733, “Probing Guanidino Pendant or Bridged Groups in Cyclic Antimicrobial Peptides Derived from Temporin L: A Strategy to Improve Efficacy against Gram-Negative Bacteria” (Journal of Medicinal Chemistry, 2025)
Read-outs that look alike come from different tables or passages of the source. Bridge positions count the residues as written; N and C are the ends. Square brackets hold non-standard residues; d marks the D form. Peptide text beside a SMILES is read from it.

Procedure: The fusogenic ability of peptides was studied performing the lipid mixing experiment and evaluating a reduction in the fluorescence energy transfer efficiency between fluorophores 12-(N-methyl-N-(7-nitrobenz-2-oxa-1,3-diazol-4-yl)) (NBD) and Rhodamine (Rho) bound to liposomes. We prepared unlabeled LUVs mimicking Gram-positive and Gram-negative membranes at a concentration of 0.16 mM, and labeled LUVs mimicking Gram-positive and Gram-negative membranes with 0.6% mol of NBD-PE and 0.6% mol of Rho-PE at the concentration of 0.04 mM. LUVs were prepared as described above, and for the experiment, unlabeled and labeled LUVs were mixed at a 1:4 ratio to have final lipid concentration of 0.1 mM. The fusogenic activity of each peptide was evaluated at lipide/peptide ratio of 0.01, 0.03, 0.05, 0.1, 0.2, 0.3, 0.5, and NBD emission at 530 nm and Rho emission at 590 nm were recorded setting an NBD excitation wavelength set at 465 nm.
The percentage of fusion was calculated as a function of 100% value corresponding to complete mixing of LUVs upon the addition of Triton X-100 (0.05% v/v). The percentage fusion was calculated as [F530/F590]peptide−[F530/F590]blank/[F530/F590]triton−[F530/F590]blank×100 where F 530 and F 590 are the fluorescence intensities at 530 and 590 nm calculated in the absence and in the presence of the peptide and Triton X-100.

For CC[C@H](C)[C@H](NC(=O)[C@H](CCCNC(=N)N)NC(=O)[C@H]1CCC(=O)NCCCC[C@H](NC(=O)[C@H](Cc2ccccc2)NC(=O)[C@H](Cc2c[nH]c3ccccc23)NC(=O)[C@@H]2CCCN2C(=O)[C@@H](NC(=O)[C@@H](N)Cc2ccccc2)C(C)C)C(=O)N[C@@H](CCCCN)C(=O)N[C@@H](Cc2ccccc2)C(=O)N[C@H](CC(C)C)C(=O)N1)C(=O)N[C@@H](CC(C)C)C(N)=O [Peptide 2, FVPWF[KKFle]RIL] (H-FVPWFKKF[dL][dE]RIL-NH2; lactam 6-10), the fusion (LUVs DOPG:CL, P/L ratio of 0.3) was 100% and the fusion (LUVs DOPG:DOPE:CL, P/L ratio of 0.5) was 75%.
